How the values were obtained:
[1] = tested on: human MDA-MB-231 breast cancer cell xenografts; test: Dose-response effects on breast tumour growth in nude mice with MDA-MB-231 xenografts (37 days IP); type: in vivo, mouse (nu/nu Balb/c, female); details: for Average tumour volumes / Final tumour weight at day 37: mean ± SEM, n = 5; for tumour suppression (overall statement): all doses (2.5, 10, 40 mg/kg)
Protocol: Dose-response effects of compounds CP01 and CP03 on breast tumour growth in nude mice with human MDA-MB-231 breast cancer cell xenografts (subcutaneous injection in mammary fat pad)
5 weeks old when ordered, 6 weeks old when xenografted.
human MDA-MB-231 cells, 4×10^5 cells/100 μL (Matrigel:PBS 1:1)/mouse, subcutaneous injection into the third mammary fat pad.
7 groups, 5 mice in each group. After the cell injection, 7 cages were randomly divided into 7 groups following the average mouse body weight of mice each cage. • Control • CP01-2.5 mg/kg • CP01-10 mg/kg • CP01-40 mg/kg • CP03-2.5 mg/kg • CP03-10 mg/kg • CP03-40 mg/kg
Solid CP01 or CP03 powder was dissolved in DMSO at 40° C. to a final concentration of 400 mg/mL.
(§1) After 4 days of cancer cell xenografting, IP administration of compounds CP01 or CP03 was started (2.5, 10 and 40 mg/kg). Compounds were diluted in corn oil containing 4% DMSO. Injection volume was 50 μL each mouse with a 20-gram body weight. IP injections were administered once a day for six days per week for a total of 37 days in duration. In a further study (see below), different doses of CP01, CP03 and CP05 were administered to nude mice carrying MDA-MB-231 xenografts (FIGS. 11, 12 and 13, respectively). The endpoint in this experiment was tumour volume and the experiments were conducted for 32 days.
(§2) Body weights were recorded six days per week and tumour sizes were measured with a pair of caliper, every three to four days.

[2] = Mouse body weight growth in control and treated groups; type: in vivo; details: IP 2.5, 10 and 40 mg/kg, 37 days; for body weight growth of treated mice compared with control group: once a day six days per week
Protocol: The weight range at the start of IP treatments was from 13.1 g to 18.1 g at Day 1 and increased to a range of 17.1 g to 21.3 g at Day 37.
as §1, §2

MDA-MB-231 cells = test: Matrigel migration assay; type: cell-based, Human; details: 1, 5 and 10 μM, 24 h; P<0.01; FIG. 4
Protocol: Human MDA-MB-231, MDA-MB-468 and T-47D breast cancer cells were obtained from the American Type Culture Collection (ATCC; Manassas, Va., USA). Cells were plated on 96-well microplates at a density of 1×10^4 cells per well for MTT, ATP, Caspase and JC-1 assays. Cells were maintained in Dulbecco's Modified Eagle's Medium (DMEM; Invitrogen, Carlsbad, Calif., USA) supplemented with 10% (w/v) fetal bovine serum (Hyclone, Salt Lake City, Utah, USA), 100 U/mL penicillin, and 100 μg/mL streptomycin (Invitrogen). All of the cells were incubated at 37° C. in a humidified atmosphere of 95% air and 5% CO2. Confluent cells (80-90%) were washed in phosphate-buffered saline, harvested using Trypsin/EDTA, and counted using trypan blue exclusion in a Countess Automated Cell Counter (Invitrogen) before passaging or use in assays.
MDA-MB-231 cells were trypsinized and resuspended in serum-free DMEM media (3.5×10^6 cells/mL). The cell suspension was mixed 1:1 with Matrigel solution (Bio Scientific; Kirrawee, NSW, Australia). Aliquots (20 μL containing 3.5×10^4 cells) were placed into 6-well tissue-culture dishes to form well-defined droplets and incubated at 37° C. for 5 min to enable semi-solidification. Migration media was freshly made as DMEM containing 20% fetal bovine serum, epidermal growth factor 10 pg/mL, hydrocortisone 0.4 ng/mL, vascular endothelial growth factor (VEGF, 1 pg/mL), basic fibroblast growth factor (bFGF, 20 pg/mL), insulin-like growth factor-1 (40 pg/mL), ascorbic acid (2 ng/mL) and heparin (45 ng/mL). Compounds were added in migration media (3 mL/well) and plates were then incubated for 24 h. Cells that migrated out of droplets were scored using phase-contrast microscopy and digital image analysis (Olympus).

With `O=C(O)CCCCCCCCCCCSCCCNC(=O)Nc1ccc(Cl)c(C(F)(F)F)c1` [CP01, 12-{[3-({[4-Chloro-3-(trifluoromethyl)phenyl]carbamoyl}amino)propyl]sulfanyl}dodecanoic acid] the Average tumour volumes ([1]; 2.5 mg/kg IP, Day 8) was 12.5 ± 1.9 mm^3, the Average tumour volumes ([1]; 2.5 mg/kg IP, Day 11) was 10.5 ± 1^ mm^3 and the Average tumour volumes ([1]; 2.5 mg/kg IP, Day 15) was 10 ± 2.9 mm^3. The Average tumour volumes ([1]; 2.5 mg/kg IP, Day 18) was 12.2 ± 3.2 mm^3, the Average tumour volumes ([1]; 2.5 mg/kg IP, Day 21) was 16.9 ± 4.4 mm^3 and the Average tumour volumes ([1]; 2.5 mg/kg IP, Day 25) was 23.9 ± 6.1 mm^3. The Average tumour volumes ([1]; 2.5 mg/kg IP, Day 29) was 29.3 ± 7.4 mm^3, the Average tumour volumes ([1]; 2.5 mg/kg IP, Day 32) was 52.1 ± 15 mm^3 and the Average tumour volumes ([1]; 2.5 mg/kg IP, Day 35) was 67.7 ± 17.1 mm^3. The Average tumour volumes ([1]; 2.5 mg/kg IP, Day 37) was 78.7 ± 19.8 mm^3, the “Final tumour weight at day 37” value ([1]; 2.5 mg/kg IP) was 0.05 ± 0.01 g and the Average tumour volumes ([1]; 10 mg/kg IP, Day 8) was 15 ± 2.4 mm^3. For the same compound, the Average tumour volumes ([1]; 10 mg/kg IP, Day 11) was 15.6 ± 1.8 mm^3, the Average tumour volumes ([1]; 10 mg/kg IP, Day 15) was 16.5 ± 2.8 mm^3 and the Average tumour volumes ([1]; 10 mg/kg IP, Day 18) was 22 ± 4.5 mm^3. The Average tumour volumes ([1]; 10 mg/kg IP, Day 21) was 26.4 ± 4.5 mm^3, the Average tumour volumes ([1]; 10 mg/kg IP, Day 25) was 33.6 ± 6.2 mm^3 and the Average tumour volumes ([1]; 10 mg/kg IP, Day 29) was 45.2 ± 11.2 mm^3. For the same compound, the Average tumour volumes ([1]; 10 mg/kg IP, Day 32) was 67.5 ± 19.3 mm^3, the Average tumour volumes ([1]; 10 mg/kg IP, Day 35) was 85.7 ± 25.3 mm^3 and the Average tumour volumes ([1]; 10 mg/kg IP, Day 37) was 116.5 ± 37.6 mm^3. For the same compound, the “Final tumour weight at day 37” value ([1]; 10 mg/kg IP) was 0.08 ± 0.03 g, the Average tumour volumes ([1]; 40 mg/kg IP, Day 8) was 11 ± 1.3 mm^3 and the Average tumour volumes ([1]; 40 mg/kg IP, Day 11) was 13.6 ± 2^ mm^3. For the same compound, the Average tumour volumes ([1]; 40 mg/kg IP, Day 15) was 14.7 ± 0.7 mm^3, the Average tumour volumes ([1]; 40 mg/kg IP, Day 18) was 23.6 ± 2.7 mm^3 and the Average tumour volumes ([1]; 40 mg/kg IP, Day 21) was 26.3 ± 6^ mm^3. For the same compound, the Average tumour volumes ([1]; 40 mg/kg IP, Day 25) was 35.9 ± 13.4 mm^3, the Average tumour volumes ([1]; 40 mg/kg IP, Day 29) was 47.8 ± 17^ mm^3 and the Average tumour volumes ([1]; 40 mg/kg IP, Day 32) was 67.8 ± 26 mm^3. The Average tumour volumes ([1]; 40 mg/kg IP, Day 35) was 116.6 ± 40.7 mm^3, the Average tumour volumes ([1]; 40 mg/kg IP, Day 37) was 132.8 ± 50.9 mm^3 and the “Final tumour weight at day 37” value ([1]; 40 mg/kg IP) was 0.11 ± 0.05 g. For the same compound, the “tumour suppression (overall statement)” value [1] was “strong trends toward tumour suppression at all doses”, the “reduction in tumour size (suppression of tumour growth)” value (shortened to “reduction in tumour size”) ([1]; dose 2.5 mg/kg) was 59% and the “reduction in tumour size” value ([1]; dose 10 mg/kg) was 39%. For the same compound, the “reduction in tumour size” value ([1]; dose 40 mg/kg) was 30%, the “evidence of toxicity (from body weight)” value [2] was “no evidence of toxicity” and the “body weight growth of treated mice compared with control group” value [2] was “no significant difference”.
For `Cc1ccc(NC(=O)NCCCSCCCCCCCCCCCC(=O)O)cc1` [CP02, 12-[(3-{[(4-Methylphenyl)carbamoyl]amino}propyl)sulfanyl]dodecanoic acid], the “migration of MDA-MB-231 cells out of matrigel droplets” value (“migration” below) (MDA-MB-231 cells) was “all decreases significant”.
Compound `O=C(O)CSCCCCCCCCCCCCCNC(=O)Nc1ccc(Cl)c(C(F)(F)F)c1` [CP03, {[13-({[4-Chloro-3-(trifluoromethyl)phenyl]carbamoyl}amino)tridecyl]sulfanyl}acetic acid] has an Average tumour volumes ([1]; 2.5 mg/kg IP, Day 8) of 8.8 ± 1.4 mm^3, an Average tumour volumes ([1]; 2.5 mg/kg IP, Day 11) of 10.7 ± 1.3 mm^3 and an Average tumour volumes ([1]; 2.5 mg/kg IP, Day 15) of 14.5 ± 0.9 mm^3. It also gave an Average tumour volumes ([1]; 2.5 mg/kg IP, Day 18) of 18 ± 1.6 mm^3, an Average tumour volumes ([1]; 2.5 mg/kg IP, Day 21) of 23 ± 2.8 mm^3 and an Average tumour volumes ([1]; 2.5 mg/kg IP, Day 25) of 29.5 ± 6 mm^3. The Average tumour volumes ([1]; 2.5 mg/kg IP, Day 29) was 45.4 ± 9.5 mm^3, the Average tumour volumes ([1]; 2.5 mg/kg IP, Day 32) was 60.9 ± 13.7 mm^3 and the Average tumour volumes ([1]; 2.5 mg/kg IP, Day 35) was 80.4 ± 21^ mm^3. For the same compound, the Average tumour volumes ([1]; 2.5 mg/kg IP, Day 37) was 106.7 ± 29.4 mm^3, the “Final tumour weight at day 37” value ([1]; 2.5 mg/kg IP) was 0.09 ± 0.03 g and the Average tumour volumes ([1]; 10 mg/kg IP, Day 8) was 11.3 ± 2.9 mm^3. For the same compound, the Average tumour volumes ([1]; 10 mg/kg IP, Day 11) was 10.9 ± 1.5 mm^3, the Average tumour volumes ([1]; 10 mg/kg IP, Day 15) was 16.5 ± 2.8 mm^3 and the Average tumour volumes ([1]; 10 mg/kg IP, Day 18) was 19.3 ± 2.1 mm^3. The Average tumour volumes ([1]; 10 mg/kg IP, Day 21) was 17.1 ± 2.9 mm^3, the Average tumour volumes ([1]; 10 mg/kg IP, Day 25) was 23.1 ± 5 mm^3 and the Average tumour volumes ([1]; 10 mg/kg IP, Day 29) was 29 ± 7.5 mm^3. For the same compound, the Average tumour volumes ([1]; 10 mg/kg IP, Day 32) was 39.3 ± 12.9 mm^3, the Average tumour volumes ([1]; 10 mg/kg IP, Day 35) was 50.3 ± 21.2 mm^3 and the Average tumour volumes ([1]; 10 mg/kg IP, Day 37) was 67.3 ± 33.3 mm^3. The “Final tumour weight at day 37” value ([1]; 10 mg/kg IP) was 0.06 ± 0.03 g, the Average tumour volumes ([1]; 40 mg/kg IP, Day 8) was 13.4 ± 2.3 mm^3 and the Average tumour volumes ([1]; 40 mg/kg IP, Day 11) was 12.5 ± 2^ mm^3. The Average tumour volumes ([1]; 40 mg/kg IP, Day 15) was 17.2 ± 1.9 mm^3, the Average tumour volumes ([1]; 40 mg/kg IP, Day 18) was 24.4 ± 5.5 mm^3 and the Average tumour volumes ([1]; 40 mg/kg IP, Day 21) was 24 ± 5.2 mm^3. The Average tumour volumes ([1]; 40 mg/kg IP, Day 25) was 35.7 ± 10.7 mm^3, the Average tumour volumes ([1]; 40 mg/kg IP, Day 29) was 46.3 ± 16.7 mm^3 and the Average tumour volumes ([1]; 40 mg/kg IP, Day 32) was 65.7 ± 23^ mm^3. The Average tumour volumes ([1]; 40 mg/kg IP, Day 35) was 96.1 ± 33.8 mm^3, the Average tumour volumes ([1]; 40 mg/kg IP, Day 37) was 118.9 ± 44.7 mm^3 and the “Final tumour weight at day 37” value ([1]; 40 mg/kg IP) was 0.09 ± 0.04 g. For the same compound, the “tumour suppression (overall statement)” value [1] was “strong trends toward tumour suppression at all doses”, the “reduction in tumour size” value ([1]; dose 2.5 mg/kg) was 44% and the “reduction in tumour size” value ([1]; dose 10 mg/kg) was 65%. The “reduction in tumour size” value ([1]; dose 40 mg/kg) was 38%, the “evidence of toxicity (from body weight)” value [2] was “no evidence of toxicity” and the “body weight growth of treated mice compared with control group” value [2] was “no significant difference”.
In the case of `Cc1ccc(NC(=O)NCCCCCCCCCCCCCSCC(=O)O)cc1` [CP04], the “migration” value (MDA-MB-231 cells) is reported as “all decreases significant”.
With `Cc1ccc(NC(=O)NCCCSCCCCCCCCCSCC(=O)O)cc1` [CP06, ({9-[(3-{[(4-Methylphenyl)carbamoyl]amino}propyl)sulfanyl]nonyl}sulfanyl)acetic acid] the “migration” value (MDA-MB-231 cells) was “all decreases significant”.

From patent US20170183297A1, “OMEGA-3 ANALOGUES” (The University of Sydney, priority 2014, published 2017)
